Like-named read-outs stand apart in the source and are kept apart here.
Experiments:
[1] = Solubility of biocides in solvents; format: physicochemical
Source text: For example, Arch Wood Protection recently received US EPA registration on an end use wood preservative product having 5.0% tebuconazole, 5.0% propiconazole, 0.5% imidacloprid, and 89.5% inert ingredients (surfactants, etc). This is near the solubility limit of the carrier, that is, very little additional biocidal azole can be dissolved in that material. This is about 20 parts biocidal azoles per part of imidacloprid. Other commercially importants formulations include tebuconazole and imidacloprid in a ratio of about 50 parts to 1 part by weight, and 4 parts biocidal azoles (tebuconazole and propiconazole) per part by weight of permethin. In contrast, an exemplary formulation of the present invention comprises 15.0% tebuconazole (range 1-35%, preferably 5-20%), 15.0% propiconazole (range 1-40%, preferably 5-20%), 1.5% imidacloprid (range 0.2%-3%), 5.0% of an emulsifier blend (range 1-15%), 60.0% of a basic solvent such as N,N-dimethyldecanamide/octanamide (range 0.0-65%), and 3.5% N-methyl pyrrolidone (range 0.0-50%). The alkyl pyrrolidones can be included in component (A) compounds if an organic biocide is particularly difficult to dissolve.
Other biocides which could be used in this invention include those in the azole family and other organic molecules in general (fungicides and insecticides) that are applicable to wood preservation. These could be combined in any number of mixtures and variations, including two-ways, four-ways, etc. or alone. A large number of surfactants that can be used as emulsifier components to make an EC. It really comes down to the formulator's preference. Similarly, there are many other solvents that could be used to dissolve these active ingredients and make an EC or microemulsion from an emulsion concentrate (MEC). When the compositions are diluted and undergo sufficient shear to form a microemulsion, the resultant microemulsion is stable at all reasonably useful levels of water dilution and remain thermodynamically stable and clear, opalescent, or only slightly cloudy. […]

[2] = Particle size distribution on wet ball milling with 0.3 mm zirconia; format: physicochemical
Source text: Milling tebuconazole with 0.3 mm zirconium oxide milling material. Tebuconazole is a preferred organic biocide for use in wood and also for selected foliar applications and for incorporation into biocidal materials. […] Exemplary other preferred biocides from the same class of material include cyproconazole, tetraconazole, difenoconazole, diniconazole, penconazole, imibenconazole, propiconazole, azaconazole, and epoxyconazole. […] A CB Mills Vertical Mill Model: L-1 mill was used in this experiment. […] The original d50 (the diameter at which 50% by weight of the particles have an effective diameter equal to or less than the d50) of the tebuconazole, prior to wet milling, was about 25 microns, with about a fourth of the tebuconazole in particles […] having a particle size less than 4 microns. The milling media was 0.3-0.5 mm Yttrium doped Zirconium Oxide. The density of the yttrium-doped zirconium oxide is ˜6.0 g/cm^3. […] Generally, for injecting into wood, we prefer less than 2% by weight of particles have a diameter greater than 1 micron, more preferably 0.7 microns. The residual large particles can be separated from the slurry by centrifugation and then be sent back to the mill for additional milling.

What does the source list for CC(C)(C)C(O)(CCc1ccc(Cl)cc1)Cn1cncn1 (stereo not drawn) [Tebuconazole]?
solubility in N,N-dimethylcapramide [1]: very soluble; Volume % With Diameter 1-10 μm ([2]; milling time 0 mins): 4 Volume %; Volume % With Diameter 10-25 μm ([2]; milling time 0 mins): 42.2 Volume %; Volume % With Diameter 25-50 μm ([2]; milling time 0 mins): 27.2 Volume %; Volume % With Diameter >50 μm ([2]; milling time 0 mins): 26.6 Volume %; Volume % With Diameter 0.2-1 μm ([2]; milling time 150 mins): 20.7 Volume %; Volume % With Diameter 1-10 μm ([2]; milling time 150 mins): 4.2 Volume %; Volume % With Diameter 10-25 μm ([2]; milling time 150 mins): 3.6 Volume %; Volume % With Diameter 25-50 μm ([2]; milling time 150 mins): 0 Volume %; Volume % With Diameter <0.2 μm ([2]; milling time 150 mins): 71.5 Volume %; Volume % With Diameter >50 μm ([2]; milling time 150 mins): 0 Volume %; d50 ([2]; prior to wet milling): about 25 microns; weight % having a particle size less than 4 microns ([2]; prior to wet milling): about 4 % by weight

For O=[N+]([O-])NC1=NCCN1Cc1ccc(Cl)nc1 [Imidacloprid], which “solubility in most every EPA approved solvent” value [1] is on record?
Its value is “sparingly soluble”.

With CCCC1COC(Cn2cncn2)(c2ccc(Cl)cc2Cl)O1 (stereo not drawn) [propiconazole] as the molecule, how does the “solubility in N,N-dimethylcapramide” value ([1]; solvent N,N-DMC) read?
Its value is “very soluble”.
